Patent publication US11053219B2, “Substituted pyridines as TYK2 inhibitors” (FronThera U.S. Pharmaceuticals LLC, priority 2018, dated 2021)
Like-named read-outs stand apart in the source and are kept apart here.

Assays:
[1] = test system: IL12-induced p-STAT4 in human PBMC; assay: IL-12 induced pSTAT4 in human PBMC; format: cell-based; settings: read-out: p-STAT4 IC50
[2] = test system: INFα induced pSTAT5 in human PBMC; assay: INFα induced pSTAT5 in human PBMC; format: cell-based; settings: read-out: p-STAT5 IC50
TYK2 (JH2 domain) = TYK2 (JH2 domain) (Homo sapiens (Human), UniProt P29597); assay: TYK2 JH2 domain binding assay (DiscoverX KINOMEscan); settings: 11-point 3-fold dilution, duplicate
Chain of TYK2 (JH2 domain) (P29597 589-875): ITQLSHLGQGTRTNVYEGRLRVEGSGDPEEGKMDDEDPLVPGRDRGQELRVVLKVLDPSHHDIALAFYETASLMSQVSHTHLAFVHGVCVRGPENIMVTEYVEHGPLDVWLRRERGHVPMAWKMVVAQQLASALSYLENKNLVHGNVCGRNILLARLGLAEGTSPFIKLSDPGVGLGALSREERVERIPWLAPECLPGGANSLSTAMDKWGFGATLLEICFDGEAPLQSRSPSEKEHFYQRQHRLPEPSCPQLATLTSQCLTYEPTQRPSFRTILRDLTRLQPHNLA

Kd (TYK2 (JH2 domain)) | SMILES | IC50 ([1]; Homo sapiens, PBMC) | IC50 ([2]; Homo sapiens, PBMC) | IC50 ([1]; human PBMC, IL-12 10 ng/ml) | IC50 ([2]; human PBMC, INFα 5000 units/ml)
– | COc1c(Nc2cc(NC(=O)C3CC3)ncc2C(=O)C2CC2)cccc1-c1ncn(C)n1 [Example 27] | < 100 nM | < 100 nM | – | –
≤ 1 nM | [2H]C([2H])([2H])NC(=O)c1nnc(N2CCN(C(C)(C)C)C2=O)cc1Nc1cccc(-c2ncn(C)n2)c1OC [Example 89] | – | – | < 100 nM | < 100 nM
– | [2H]C([2H])([2H])n1cnc(-c2cccc(Nc3cc(NC(=O)C4CC4)ncc3C(=O)C3CC3)c2OC)n1 [Example 54] | – | – | < 100 nM | < 100 nM
≤ 1 nM | [2H]C([2H])([2H])NC(=O)c1nnc(N2CCN(C3(C)CC3)C2=O)cc1Nc1cccc(-c2ncn(C)n2)c1OC [Example 88] | – | – | < 100 nM | –
≤ 1 nM | [2H]C([2H])([2H])NC(=O)c1nnc(NC(=O)N2CC(C)C2)cc1Nc1cccc(-c2ncn(C)n2)c1OC [Example 49] | – | – | < 100 nM | < 100 nM
≤ 1 nM | [2H]C([2H])([2H])NC(=O)c1nnc(N2CCN(C3CCC3)C2=O)cc1Nc1cccc(-c2ncn(C([2H])([2H])[2H])n2)c1OC [Example 22, 6-(3-cyclobutyl-2-oxo-imidazolidin-1-yl)-4-[2-methoxy-3-[1-(trideuteriomethyl)-1,2,4-triazol-3-yl]anilino]-N-(trideuteriomethyl)pyridazine-3-carboxamide] | – | – | < 100 nM | –
≤ 1 nM | [2H]C([2H])([2H])NC(=O)c1nnc(N2CCN(C3CCCC3)C2=O)cc1Nc1cccc(-c2ncn(C)n2)c1OC [Example 18, 6-(3-cyclopentyl-2-oxo-imidazolidin-1-yl)-4-[2-methoxy-3-(1-methyl-1,2,4-triazol-3-yl)anilino]-N-(trideuteriomethyl)pyridazine-3-carboxamide] | – | – | < 100 nM | –
≤ 1 nM | [2H]C([2H])([2H])NC(=O)c1nnc(N2CCN(C3(C)COC3)C2=O)cc1Nc1cccc(-c2ncn(C)n2)c1OC [Example 16, 4-[2-methoxy-3-(1-methyl-1,2,4-triazol-3-yl)anilino]-6-[3-(3-methyloxetan-3-yl)-2-oxo-imidazolidin-1-yl]-N-(trideuteriomethyl)pyridazine-3-carboxamide] | – | – | < 100 nM | < 100 nM
≤ 1 nM | [2H]C([2H])([2H])NC(=O)c1nnc(N2CCN(C3CCC(F)(F)CC3)C2=O)cc1Nc1cccc(-c2ncn(C)n2)c1OC [Example 94] | – | – | < 100 nM | –
≤ 1 nM | [2H]C([2H])([2H])NC(=O)c1nnc(N2CCN(C34CC(C3)C4)C2=O)cc1Nc1cccc(-c2ncn(C)n2)c1OC [Example 19, 6-[3-(3-bicyclo[1.1.1]pentanyl)-2-oxo-imidazolidin-1-yl]-4-[2-methoxy-3-(1-methyl-1,2,4-triazol-3-yl)anilino]-N-(trideuteriomethyl)pyridazine-3-carboxamide] | – | – | < 100 nM | –
≤ 1 nM | [2H]C([2H])([2H])NC(=O)c1nnc(N2CCN(C3CC(F)(F)C3)C2=O)cc1Nc1cccc(-c2ncn(C)n2)c1OC [Example 10, 6-[3-(3,3-difluorocyclobutyl)-2-oxo-imidazolidin-1-yl]-4-[2-methoxy-3-(1-methyl-1,2,4-triazol-3-yl)anilino]-N-(trideuteriomethyl)pyridazine-3-carboxamide] | – | – | < 100 nM | < 100 nM
≤ 1 nM | COc1c(Nc2cc(NC(=O)C3CC3)ncc2C(=O)C2CC2)cccc1-c1nnn(C)n1 [Example 51] | – | – | < 100 nM | < 100 nM
≤ 1 nM | [2H]C([2H])([2H])NC(=O)c1nnc(N2CCN(C(C)CO)C2=O)cc1Nc1cccc(-c2ncn(C)n2)c1OC (centres unmarked) [Example 85] | – | – | 100 to 1000 nM | –
≤ 1 nM | [2H]C([2H])([2H])NC(=O)c1nnc(N2CCN(C3CCC3)C2=O)cc1Nc1cccc(-c2ncn(C)n2)c1OC [Example 11, 6-(3-cyclobutyl-2-oxo-imidazolidin-1-yl)-4-[2-methoxy-3-(1-methyl-1,2,4-triazol-3-yl)anilino]-N-(trideuteriomethyl)pyridazine-3-carboxamide] | – | – | < 100 nM | < 100 nM
≤ 1 nM | [2H]C([2H])([2H])NC(=O)c1nnc(NC(=O)N2CC(F)(F)C2)cc1Nc1cccc(-c2ncn(C)n2)c1OC [Example 47] | – | – | < 100 nM | –

SMILES | Kd (TYK2 (JH2 domain)) | IC50 ([1]; Homo sapiens, PBMC) | IC50 ([2]; Homo sapiens, PBMC) | IC50 ([1]; human PBMC, IL-12 10 ng/ml) | IC50 ([2]; human PBMC, INFα 5000 units/ml)
[2H]C([2H])([2H])NC(=O)c1nnc(N2CCN(C(C)C)C2=O)cc1Nc1cccc(-c2ncn(C)n2)c1OC([2H])([2H])[2H] [Example 14, 6-(3-isopropyl-2-oxo-imidazolidin-1-yl)-4-[3-(1-methyl-1,2,4-triazol-3-yl)-2-(trideuteriomethoxy)anilino]-N-(trideuteriomethyl)pyridazine-3-carboxamide] | ≤ 1 nM | – | – | < 100 nM | < 100 nM
[2H]C([2H])([2H])NC(=O)c1nnc(NC(=O)N2CC3(CCC3)C2)cc1Nc1cccc(-c2ncn(C)n2)c1OC [Example 32] | ≤ 1 nM | < 100 nM | – | – | –
[2H]C([2H])([2H])NC(=O)c1nnc(N2CCN(C(C)C)C2=O)cc1Nc1cccc(-c2ncn(C([2H])([2H])[2H])n2)c1OC [Example 15, 6-(3-isopropyl-2-oxo-imidazolidin-1-yl)-4-[2-methoxy-3-[1-(trideuteriomethyl)-1,2,4-triazol-3-yl]anilino]-N-(trideuteriomethyl)pyridazine-3-carboxamide] | ≤ 1 nM | – | – | < 100 nM | < 100 nM
[2H]C([2H])([2H])NC(=O)c1nnc(N2CCN(C(C([2H])([2H])[2H])C([2H])([2H])[2H])C2=O)cc1Nc1cccc(-c2ncn(C)n2)c1OC [Example 103] | ≤ 1 nM | – | – | < 100 nM | –
COc1c(Nc2cc(Nc3ccccn3)ncc2C(=O)C2CC2)cccc1-c1ncn(C)n1 [Example 37] | ≤ 1 nM | – | – | < 100 nM | < 100 nM
[2H]C([2H])([2H])NC(=O)c1nnc(N2CCN(C(C)C)C2=O)cc1Nc1cccc(-c2ncn(C)n2)c1OC [Example 6, 6-(3-isopropyl-2-oxo-imidazolidin-1-yl)-4-[2-methoxy-3-(1-methyl-1,2,4-triazol-3-yl)anilino]-N-(trideuteriomethyl)pyridazine-3-carboxamide] | ≤ 1 nM | < 100 nM | – | – | < 100 nM
COc1c(Nc2cc(NC(=O)N3CCC3)ncc2C(=O)C2CC2)cccc1-c1ncn(C)n1 [Example 33] | ≤ 1 nM | < 100 nM | – | – | –
[2H]C([2H])([2H])NC(=O)c1nnc(NC(=O)N2CCC2)cc1Nc1cccc(-c2ncn(C)n2)c1OC [Example 50] | ≤ 1 nM | – | – | < 100 nM | –
